In the kinase profiling compilation of Christmann-Franck et al. (2016):

biological target: TGFBR1 (human) (UniProt P36897); test: radiometric filter-binding kinase assay, Kinase HotSpot; conditions: compound 0.5 µM; ATP 10 µM

Row | SMILES | residual activity [%]
1 | O=C1NC(=O)c2cc(Nc3ccc(F)cc3)c(Nc3ccc(F)cc3)cc21 | 98.1
2 | N#CCCc1ccc2c(c1)-c1[nH]c3ccc([N+](=O)[O-])cc3c1CC(=O)N2 | 103
3 | O=c1c2ccccc2[nH]c(=S)n1CCN1CCC(=C(c2ccc(F)cc2)c2ccc(F)cc2)CC1 | 96.2
4 | O=S(=O)(NCCNC/C=C/c1ccc(Br)cc1)c1cccc2cnccc12 | 97

biological target: TEK (human) (UniProt Q02763); test: as above; conditions: compound 0.5 µM; ATP 10 µM

Row | SMILES | residual activity [%]
5 | O=C1NC(=O)c2cc(Nc3ccc(F)cc3)c(Nc3ccc(F)cc3)cc21 | 97.6
6 | N#CCCc1ccc2c(c1)-c1[nH]c3ccc([N+](=O)[O-])cc3c1CC(=O)N2 | 97.6
7 | O=c1c2ccccc2[nH]c(=S)n1CCN1CCC(=C(c2ccc(F)cc2)c2ccc(F)cc2)CC1 | 96.1
8 | O=S(=O)(NCCNC/C=C/c1ccc(Br)cc1)c1cccc2cnccc12 | 99.8

biological target: BRSK2 (human) (UniProt Q8IWQ3); test: as above; conditions: compound 0.5 µM; ATP 10 µM

Row | SMILES | residual activity [%]
9 | O=C1NC(=O)c2cc(Nc3ccc(F)cc3)c(Nc3ccc(F)cc3)cc21 | 96.8
10 | N#CCCc1ccc2c(c1)-c1[nH]c3ccc([N+](=O)[O-])cc3c1CC(=O)N2 | 42
11 | O=c1c2ccccc2[nH]c(=S)n1CCN1CCC(=C(c2ccc(F)cc2)c2ccc(F)cc2)CC1 | 99.8
12 | O=S(=O)(NCCNC/C=C/c1ccc(Br)cc1)c1cccc2cnccc12 | 92.4

biological target: VRK1 (human) (UniProt Q99986); test: as above; conditions: compound 0.5 µM; ATP 10 µM

Row | SMILES | residual activity [%]
13 | O=C1NC(=O)c2cc(Nc3ccc(F)cc3)c(Nc3ccc(F)cc3)cc21 | 93
14 | N#CCCc1ccc2c(c1)-c1[nH]c3ccc([N+](=O)[O-])cc3c1CC(=O)N2 | 97.5
15 | O=c1c2ccccc2[nH]c(=S)n1CCN1CCC(=C(c2ccc(F)cc2)c2ccc(F)cc2)CC1 | 95.9
16 | O=S(=O)(NCCNC/C=C/c1ccc(Br)cc1)c1cccc2cnccc12 | 80.1

biological target: HCK (human) (UniProt P08631); test: as above; conditions: compound 0.5 µM; ATP 10 µM

Row | SMILES | residual activity [%]
17 | O=C1NC(=O)c2cc(Nc3ccc(F)cc3)c(Nc3ccc(F)cc3)cc21 | 88.3
18 | N#CCCc1ccc2c(c1)-c1[nH]c3ccc([N+](=O)[O-])cc3c1CC(=O)N2 | 63.8
19 | O=c1c2ccccc2[nH]c(=S)n1CCN1CCC(=C(c2ccc(F)cc2)c2ccc(F)cc2)CC1 | 114
20 | O=S(=O)(NCCNC/C=C/c1ccc(Br)cc1)c1cccc2cnccc12 | 99.4

biological target: CDK5 CDK5R1 p25 (human) (UniProt Q00535+Q15078); test: as above; conditions: compound 0.5 µM; ATP 10 µM

Row | SMILES | residual activity [%]
21 | O=C1NC(=O)c2cc(Nc3ccc(F)cc3)c(Nc3ccc(F)cc3)cc21 | 85.9
22 | N#CCCc1ccc2c(c1)-c1[nH]c3ccc([N+](=O)[O-])cc3c1CC(=O)N2 | 5.79
23 | O=c1c2ccccc2[nH]c(=S)n1CCN1CCC(=C(c2ccc(F)cc2)c2ccc(F)cc2)CC1 | 93.5
24 | O=S(=O)(NCCNC/C=C/c1ccc(Br)cc1)c1cccc2cnccc12 | 113

biological target: PIM1 (human) (UniProt P11309); test: as above; conditions: compound 0.5 µM; ATP 10 µM
Sequence (P11309 whole entry, looked up): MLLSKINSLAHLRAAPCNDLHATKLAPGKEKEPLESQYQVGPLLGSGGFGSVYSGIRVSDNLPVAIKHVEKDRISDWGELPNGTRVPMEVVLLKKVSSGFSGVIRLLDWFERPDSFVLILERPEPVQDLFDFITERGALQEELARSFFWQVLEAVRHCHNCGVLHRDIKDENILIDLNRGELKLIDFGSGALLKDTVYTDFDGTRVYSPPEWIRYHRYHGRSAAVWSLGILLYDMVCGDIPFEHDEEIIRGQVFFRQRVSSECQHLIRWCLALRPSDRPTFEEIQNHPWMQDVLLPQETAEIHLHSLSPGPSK

Row | SMILES | residual activity [%]
25 | O=C1NC(=O)c2cc(Nc3ccc(F)cc3)c(Nc3ccc(F)cc3)cc21 | 81.8
26 | N#CCCc1ccc2c(c1)-c1[nH]c3ccc([N+](=O)[O-])cc3c1CC(=O)N2 | 93.6
27 | O=c1c2ccccc2[nH]c(=S)n1CCN1CCC(=C(c2ccc(F)cc2)c2ccc(F)cc2)CC1 | 105
28 | O=S(=O)(NCCNC/C=C/c1ccc(Br)cc1)c1cccc2cnccc12 | 90.1

biological target: ROCK1 (human) (UniProt Q13464); test: as above; conditions: compound 0.5 µM; ATP 10 µM

Row | SMILES | residual activity [%]
29 | O=C1NC(=O)c2cc(Nc3ccc(F)cc3)c(Nc3ccc(F)cc3)cc21 | 96.7
30 | N#CCCc1ccc2c(c1)-c1[nH]c3ccc([N+](=O)[O-])cc3c1CC(=O)N2 | 38.9
31 | O=c1c2ccccc2[nH]c(=S)n1CCN1CCC(=C(c2ccc(F)cc2)c2ccc(F)cc2)CC1 | 97.2
32 | O=S(=O)(NCCNC/C=C/c1ccc(Br)cc1)c1cccc2cnccc12 | 37.8

biological target: CAMK2A (human) (UniProt Q9UQM7); test: as above; conditions: compound 0.5 µM; ATP 10 µM

Row | SMILES | residual activity [%]
33 | O=C1NC(=O)c2cc(Nc3ccc(F)cc3)c(Nc3ccc(F)cc3)cc21 | 103
34 | N#CCCc1ccc2c(c1)-c1[nH]c3ccc([N+](=O)[O-])cc3c1CC(=O)N2 | 69.1
35 | O=c1c2ccccc2[nH]c(=S)n1CCN1CCC(=C(c2ccc(F)cc2)c2ccc(F)cc2)CC1 | 105
36 | O=S(=O)(NCCNC/C=C/c1ccc(Br)cc1)c1cccc2cnccc12 | 102

biological target: STK4 (human) (UniProt Q13043); test: as above; conditions: compound 0.5 µM; ATP 10 µM

Row | SMILES | residual activity [%]
37 | O=C1NC(=O)c2cc(Nc3ccc(F)cc3)c(Nc3ccc(F)cc3)cc21 | 101
38 | N#CCCc1ccc2c(c1)-c1[nH]c3ccc([N+](=O)[O-])cc3c1CC(=O)N2 | 30.9
39 | O=c1c2ccccc2[nH]c(=S)n1CCN1CCC(=C(c2ccc(F)cc2)c2ccc(F)cc2)CC1 | 103
40 | O=S(=O)(NCCNC/C=C/c1ccc(Br)cc1)c1cccc2cnccc12 | 92.6

biological target: NUAK1 (human) (UniProt O60285); test: as above; conditions: compound 0.5 µM; ATP 10 µM

Row | SMILES | residual activity [%]
41 | O=C1NC(=O)c2cc(Nc3ccc(F)cc3)c(Nc3ccc(F)cc3)cc21 | 94
42 | N#CCCc1ccc2c(c1)-c1[nH]c3ccc([N+](=O)[O-])cc3c1CC(=O)N2 | 14.1
43 | O=c1c2ccccc2[nH]c(=S)n1CCN1CCC(=C(c2ccc(F)cc2)c2ccc(F)cc2)CC1 | 102
44 | O=S(=O)(NCCNC/C=C/c1ccc(Br)cc1)c1cccc2cnccc12 | 32.8

biological target: CAMK1G (human) (UniProt Q96NX5); test: as above; conditions: compound 0.5 µM; ATP 10 µM
Sequence (Q96NX5 whole entry, looked up): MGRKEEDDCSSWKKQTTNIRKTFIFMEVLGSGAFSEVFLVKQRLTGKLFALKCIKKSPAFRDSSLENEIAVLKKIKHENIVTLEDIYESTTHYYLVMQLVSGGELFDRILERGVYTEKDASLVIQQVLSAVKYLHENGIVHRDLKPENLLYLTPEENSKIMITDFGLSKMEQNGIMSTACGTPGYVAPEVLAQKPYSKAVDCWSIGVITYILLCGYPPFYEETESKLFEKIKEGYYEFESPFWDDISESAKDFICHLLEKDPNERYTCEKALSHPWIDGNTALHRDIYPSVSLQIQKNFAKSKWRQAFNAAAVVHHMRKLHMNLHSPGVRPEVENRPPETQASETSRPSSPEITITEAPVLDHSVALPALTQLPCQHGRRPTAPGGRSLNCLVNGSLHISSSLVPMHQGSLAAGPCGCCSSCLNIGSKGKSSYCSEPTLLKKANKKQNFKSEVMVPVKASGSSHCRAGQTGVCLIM

Row | SMILES | residual activity [%]
45 | O=C1NC(=O)c2cc(Nc3ccc(F)cc3)c(Nc3ccc(F)cc3)cc21 | 106
46 | N#CCCc1ccc2c(c1)-c1[nH]c3ccc([N+](=O)[O-])cc3c1CC(=O)N2 | 103
47 | O=c1c2ccccc2[nH]c(=S)n1CCN1CCC(=C(c2ccc(F)cc2)c2ccc(F)cc2)CC1 | 104
48 | O=S(=O)(NCCNC/C=C/c1ccc(Br)cc1)c1cccc2cnccc12 | 99.1

biological target: PRKCH (human) (UniProt P24723); test: as above; conditions: compound 0.5 µM; ATP 10 µM

Row | SMILES | residual activity [%]
49 | O=C1NC(=O)c2cc(Nc3ccc(F)cc3)c(Nc3ccc(F)cc3)cc21 | 83.3
50 | N#CCCc1ccc2c(c1)-c1[nH]c3ccc([N+](=O)[O-])cc3c1CC(=O)N2 | 99.4
51 | O=c1c2ccccc2[nH]c(=S)n1CCN1CCC(=C(c2ccc(F)cc2)c2ccc(F)cc2)CC1 | 102
52 | O=S(=O)(NCCNC/C=C/c1ccc(Br)cc1)c1cccc2cnccc12 | 53.2

biological target: MAP3K9 (human) (UniProt P80192); test: as above; conditions: compound 0.5 µM; ATP 10 µM
Sequence (P80192 whole entry, looked up): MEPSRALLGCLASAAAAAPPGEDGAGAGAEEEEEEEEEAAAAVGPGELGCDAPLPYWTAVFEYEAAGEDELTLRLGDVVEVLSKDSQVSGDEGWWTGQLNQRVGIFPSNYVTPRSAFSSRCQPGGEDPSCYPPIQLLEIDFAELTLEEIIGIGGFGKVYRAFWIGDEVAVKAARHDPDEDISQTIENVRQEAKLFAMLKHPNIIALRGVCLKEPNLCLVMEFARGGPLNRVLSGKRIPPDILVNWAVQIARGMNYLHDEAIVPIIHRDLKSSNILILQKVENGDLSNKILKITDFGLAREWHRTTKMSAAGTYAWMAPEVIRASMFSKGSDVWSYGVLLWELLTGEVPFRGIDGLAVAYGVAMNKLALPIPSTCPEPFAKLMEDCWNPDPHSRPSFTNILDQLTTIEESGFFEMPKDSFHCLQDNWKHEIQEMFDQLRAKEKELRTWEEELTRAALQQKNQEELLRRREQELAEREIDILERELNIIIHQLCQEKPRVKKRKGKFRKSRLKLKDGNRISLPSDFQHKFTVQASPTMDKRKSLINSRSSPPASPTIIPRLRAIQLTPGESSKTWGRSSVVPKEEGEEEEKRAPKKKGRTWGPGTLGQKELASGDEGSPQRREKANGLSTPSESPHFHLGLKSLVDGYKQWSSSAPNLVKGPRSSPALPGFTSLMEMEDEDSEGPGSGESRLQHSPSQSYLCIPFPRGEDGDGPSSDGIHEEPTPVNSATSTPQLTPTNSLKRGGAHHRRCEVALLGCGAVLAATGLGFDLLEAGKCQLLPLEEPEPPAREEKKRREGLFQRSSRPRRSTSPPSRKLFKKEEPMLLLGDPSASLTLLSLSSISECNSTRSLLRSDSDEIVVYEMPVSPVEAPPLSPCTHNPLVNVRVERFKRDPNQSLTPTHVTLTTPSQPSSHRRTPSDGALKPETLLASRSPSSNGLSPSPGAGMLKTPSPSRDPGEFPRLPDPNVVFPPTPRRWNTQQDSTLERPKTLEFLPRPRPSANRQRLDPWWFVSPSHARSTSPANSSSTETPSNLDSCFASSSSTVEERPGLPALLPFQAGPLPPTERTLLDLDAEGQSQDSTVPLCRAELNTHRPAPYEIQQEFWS

Row | SMILES | residual activity [%]
53 | O=C1NC(=O)c2cc(Nc3ccc(F)cc3)c(Nc3ccc(F)cc3)cc21 | 102
54 | N#CCCc1ccc2c(c1)-c1[nH]c3ccc([N+](=O)[O-])cc3c1CC(=O)N2 | 18.2
55 | O=c1c2ccccc2[nH]c(=S)n1CCN1CCC(=C(c2ccc(F)cc2)c2ccc(F)cc2)CC1 | 111
56 | O=S(=O)(NCCNC/C=C/c1ccc(Br)cc1)c1cccc2cnccc12 | 99.6

biological target: TBK1 (human) (UniProt Q9UHD2); test: as above; conditions: compound 0.5 µM; ATP 10 µM

Row | SMILES | residual activity [%]
57 | O=C1NC(=O)c2cc(Nc3ccc(F)cc3)c(Nc3ccc(F)cc3)cc21 | 101
58 | N#CCCc1ccc2c(c1)-c1[nH]c3ccc([N+](=O)[O-])cc3c1CC(=O)N2 | 83.7
59 | O=c1c2ccccc2[nH]c(=S)n1CCN1CCC(=C(c2ccc(F)cc2)c2ccc(F)cc2)CC1 | 104
60 | O=S(=O)(NCCNC/C=C/c1ccc(Br)cc1)c1cccc2cnccc12 | 101

biological target: OXSR1 (human) (UniProt O95747); test: as above; conditions: compound 0.5 µM; ATP 10 µM
Sequence (O95747 whole entry, looked up): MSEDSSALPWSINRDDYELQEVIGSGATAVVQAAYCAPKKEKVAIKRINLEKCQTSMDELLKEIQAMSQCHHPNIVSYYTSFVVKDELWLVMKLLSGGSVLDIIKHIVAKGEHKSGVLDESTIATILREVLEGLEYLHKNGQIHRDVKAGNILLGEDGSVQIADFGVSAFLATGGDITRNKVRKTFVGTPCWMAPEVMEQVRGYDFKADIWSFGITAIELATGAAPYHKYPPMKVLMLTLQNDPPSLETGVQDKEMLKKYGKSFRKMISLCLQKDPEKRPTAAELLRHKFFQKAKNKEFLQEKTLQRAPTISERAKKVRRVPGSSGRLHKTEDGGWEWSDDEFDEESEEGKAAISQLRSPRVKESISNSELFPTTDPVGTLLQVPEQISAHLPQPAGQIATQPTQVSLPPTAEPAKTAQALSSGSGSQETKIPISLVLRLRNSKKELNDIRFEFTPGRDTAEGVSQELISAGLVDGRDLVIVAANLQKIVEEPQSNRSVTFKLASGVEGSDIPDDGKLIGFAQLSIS

Row | SMILES | residual activity [%]
61 | O=C1NC(=O)c2cc(Nc3ccc(F)cc3)c(Nc3ccc(F)cc3)cc21 | 101
62 | N#CCCc1ccc2c(c1)-c1[nH]c3ccc([N+](=O)[O-])cc3c1CC(=O)N2 | 94.6
63 | O=c1c2ccccc2[nH]c(=S)n1CCN1CCC(=C(c2ccc(F)cc2)c2ccc(F)cc2)CC1 | 115
64 | O=S(=O)(NCCNC/C=C/c1ccc(Br)cc1)c1cccc2cnccc12 | 95.9

biological target: CAMK2D (human) (UniProt Q13557); test: as above; conditions: compound 0.5 µM; ATP 10 µM

Row | SMILES | residual activity [%]
65 | O=C1NC(=O)c2cc(Nc3ccc(F)cc3)c(Nc3ccc(F)cc3)cc21 | 97.9
66 | N#CCCc1ccc2c(c1)-c1[nH]c3ccc([N+](=O)[O-])cc3c1CC(=O)N2 | 57.8
67 | O=c1c2ccccc2[nH]c(=S)n1CCN1CCC(=C(c2ccc(F)cc2)c2ccc(F)cc2)CC1 | 97.9
68 | O=S(=O)(NCCNC/C=C/c1ccc(Br)cc1)c1cccc2cnccc12 | 97.1

biological target: PNCK (human) (UniProt Q6P2M8); test: as above; conditions: compound 0.5 µM; ATP 10 µM
Sequence (Q6P2M8 whole entry, looked up): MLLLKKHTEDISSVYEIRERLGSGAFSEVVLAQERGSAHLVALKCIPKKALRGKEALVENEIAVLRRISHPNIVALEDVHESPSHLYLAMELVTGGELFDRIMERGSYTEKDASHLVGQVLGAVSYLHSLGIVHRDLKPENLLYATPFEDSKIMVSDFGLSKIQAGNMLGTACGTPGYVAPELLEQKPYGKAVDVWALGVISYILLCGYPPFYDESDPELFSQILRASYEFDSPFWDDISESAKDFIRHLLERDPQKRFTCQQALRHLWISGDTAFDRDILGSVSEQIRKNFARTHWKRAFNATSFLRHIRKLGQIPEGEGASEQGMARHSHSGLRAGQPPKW

Row | SMILES | residual activity [%]
69 | O=C1NC(=O)c2cc(Nc3ccc(F)cc3)c(Nc3ccc(F)cc3)cc21 | 97.3
70 | N#CCCc1ccc2c(c1)-c1[nH]c3ccc([N+](=O)[O-])cc3c1CC(=O)N2 | 107
71 | O=c1c2ccccc2[nH]c(=S)n1CCN1CCC(=C(c2ccc(F)cc2)c2ccc(F)cc2)CC1 | 109
72 | O=S(=O)(NCCNC/C=C/c1ccc(Br)cc1)c1cccc2cnccc12 | 100

biological target: MARK1 (human) (UniProt Q9P0L2); test: as above; conditions: compound 0.5 µM; ATP 10 µM
Sequence (Q9P0L2 whole entry, looked up): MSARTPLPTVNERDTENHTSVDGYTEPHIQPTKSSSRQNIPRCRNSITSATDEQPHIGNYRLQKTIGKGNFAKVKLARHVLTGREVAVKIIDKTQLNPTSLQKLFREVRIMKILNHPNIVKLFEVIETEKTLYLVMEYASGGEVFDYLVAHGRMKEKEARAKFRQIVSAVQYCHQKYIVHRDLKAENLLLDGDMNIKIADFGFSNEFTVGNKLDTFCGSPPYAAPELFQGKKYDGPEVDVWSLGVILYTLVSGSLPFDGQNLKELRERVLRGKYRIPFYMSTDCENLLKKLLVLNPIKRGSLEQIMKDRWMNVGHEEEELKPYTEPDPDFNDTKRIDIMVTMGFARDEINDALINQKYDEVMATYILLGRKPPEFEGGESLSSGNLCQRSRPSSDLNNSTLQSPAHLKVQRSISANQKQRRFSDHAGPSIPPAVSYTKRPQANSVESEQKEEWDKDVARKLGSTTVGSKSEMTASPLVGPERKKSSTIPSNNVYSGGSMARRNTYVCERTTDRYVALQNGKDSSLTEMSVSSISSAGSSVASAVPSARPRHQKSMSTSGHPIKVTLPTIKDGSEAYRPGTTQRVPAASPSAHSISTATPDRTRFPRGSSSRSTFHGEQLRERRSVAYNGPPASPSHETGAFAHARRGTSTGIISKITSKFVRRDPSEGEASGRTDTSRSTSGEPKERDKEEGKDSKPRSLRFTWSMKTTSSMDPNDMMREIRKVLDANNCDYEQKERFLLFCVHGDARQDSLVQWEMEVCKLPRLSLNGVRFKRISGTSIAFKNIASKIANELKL

Row | SMILES | residual activity [%]
73 | O=C1NC(=O)c2cc(Nc3ccc(F)cc3)c(Nc3ccc(F)cc3)cc21 | 98.9
74 | N#CCCc1ccc2c(c1)-c1[nH]c3ccc([N+](=O)[O-])cc3c1CC(=O)N2 | 67.4
75 | O=c1c2ccccc2[nH]c(=S)n1CCN1CCC(=C(c2ccc(F)cc2)c2ccc(F)cc2)CC1 | 99.7
76 | O=S(=O)(NCCNC/C=C/c1ccc(Br)cc1)c1cccc2cnccc12 | 91.2

biological target: MAPK10 (human) (UniProt P53779); test: as above; conditions: compound 0.5 µM; ATP 10 µM
Sequence (P53779 whole entry, looked up): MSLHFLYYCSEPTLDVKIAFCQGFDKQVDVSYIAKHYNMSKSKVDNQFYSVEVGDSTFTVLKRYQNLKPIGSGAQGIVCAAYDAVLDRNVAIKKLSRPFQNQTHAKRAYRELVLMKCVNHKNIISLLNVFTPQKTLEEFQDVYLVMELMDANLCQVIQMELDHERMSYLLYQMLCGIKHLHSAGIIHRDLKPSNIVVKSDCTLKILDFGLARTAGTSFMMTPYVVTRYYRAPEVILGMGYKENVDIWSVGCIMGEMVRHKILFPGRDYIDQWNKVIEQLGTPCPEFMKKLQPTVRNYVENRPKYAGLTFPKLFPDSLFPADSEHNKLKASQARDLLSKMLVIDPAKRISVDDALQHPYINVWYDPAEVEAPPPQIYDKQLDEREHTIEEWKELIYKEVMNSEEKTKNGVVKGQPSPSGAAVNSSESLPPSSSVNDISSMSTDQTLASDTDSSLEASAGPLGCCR

Row | SMILES | residual activity [%]
77 | O=C1NC(=O)c2cc(Nc3ccc(F)cc3)c(Nc3ccc(F)cc3)cc21 | 97.3
78 | N#CCCc1ccc2c(c1)-c1[nH]c3ccc([N+](=O)[O-])cc3c1CC(=O)N2 | 93.3
79 | O=c1c2ccccc2[nH]c(=S)n1CCN1CCC(=C(c2ccc(F)cc2)c2ccc(F)cc2)CC1 | 76.2
80 | O=S(=O)(NCCNC/C=C/c1ccc(Br)cc1)c1cccc2cnccc12 | 92.6

biological target: EPHB4 (human) (UniProt P54760); test: as above; conditions: compound 0.5 µM; ATP 10 µM
Sequence (P54760 whole entry, looked up): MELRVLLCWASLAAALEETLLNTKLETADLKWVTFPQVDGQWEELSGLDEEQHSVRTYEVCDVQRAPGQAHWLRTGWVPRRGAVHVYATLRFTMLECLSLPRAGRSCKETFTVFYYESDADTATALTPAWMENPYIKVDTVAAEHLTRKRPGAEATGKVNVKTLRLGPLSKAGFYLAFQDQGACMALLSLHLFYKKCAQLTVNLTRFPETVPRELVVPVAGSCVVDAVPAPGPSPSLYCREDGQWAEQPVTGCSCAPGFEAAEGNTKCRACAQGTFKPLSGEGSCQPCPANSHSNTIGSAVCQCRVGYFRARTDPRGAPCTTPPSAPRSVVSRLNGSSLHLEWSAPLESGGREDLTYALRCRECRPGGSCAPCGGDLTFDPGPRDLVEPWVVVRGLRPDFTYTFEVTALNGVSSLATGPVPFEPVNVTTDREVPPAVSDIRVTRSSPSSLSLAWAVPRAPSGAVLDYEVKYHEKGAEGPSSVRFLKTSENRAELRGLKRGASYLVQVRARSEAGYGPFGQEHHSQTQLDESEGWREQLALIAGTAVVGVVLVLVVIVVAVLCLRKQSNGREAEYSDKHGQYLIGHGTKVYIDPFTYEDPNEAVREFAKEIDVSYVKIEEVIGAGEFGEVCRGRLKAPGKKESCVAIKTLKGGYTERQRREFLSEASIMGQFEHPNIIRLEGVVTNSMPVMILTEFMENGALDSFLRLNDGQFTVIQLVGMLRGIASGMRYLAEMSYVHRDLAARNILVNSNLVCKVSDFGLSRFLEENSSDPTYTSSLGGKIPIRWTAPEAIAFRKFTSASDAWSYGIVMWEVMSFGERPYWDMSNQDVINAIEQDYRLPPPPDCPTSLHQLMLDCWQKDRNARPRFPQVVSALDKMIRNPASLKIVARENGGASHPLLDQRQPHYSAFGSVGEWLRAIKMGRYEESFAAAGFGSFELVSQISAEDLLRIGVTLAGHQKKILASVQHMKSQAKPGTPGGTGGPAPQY

Row | SMILES | residual activity [%]
81 | O=C1NC(=O)c2cc(Nc3ccc(F)cc3)c(Nc3ccc(F)cc3)cc21 | 108
82 | N#CCCc1ccc2c(c1)-c1[nH]c3ccc([N+](=O)[O-])cc3c1CC(=O)N2 | 82.2
83 | O=c1c2ccccc2[nH]c(=S)n1CCN1CCC(=C(c2ccc(F)cc2)c2ccc(F)cc2)CC1 | 97.1
84 | O=S(=O)(NCCNC/C=C/c1ccc(Br)cc1)c1cccc2cnccc12 | 108
